Like-named read-outs stand apart in the source and are kept apart here. *1 amine or outer side, *2 acyl side, *3 side chain or, on linkers, in order; H or OH if unused. Where a SMILES comes first, the peptide text is derived from it. Side-chain parts run from the residue outwards. [ ]: non-standard residue; d: D form. The star is where a group is joined. C20 diacid = O=C(O)CCCCCCCCCCCCCCCCCCC(=O)*; Phenylacetyl(3-Cl) = O=C(Cc1cccc(Cl)c1)*; γGlu = O=C(O)[C@H](CCC(=O)[*:2])N[*:1]; X44 = COc1ccc(C(C)(C)C(=O)*)cc1; X7 = CC(C)(C(=O)*)c1cccc(C#N)c1; X8 = O=C(CCNCc1cc(O)cc(F)c1)*; AEEA = NCCOCCOCC(=O)O; Aib = CC(C)(N)C(=O)O; GABA = NCCCC(=O)O; βAla = NCCC(=O)O
Columns and labels:
Type in all cases: cell-based
GLP-1 receptor [1] = target: T1, GLP-1 receptor (Homo sapiens, UniProt P43220); assay: PathHunter β-arrestin assay, GLP-1 receptor; design: host or cells: PathHunter CHO-K1 GLP1R β-Arrestin Cell Line
GIP receptor [2] = target: T2, GIP receptor (Homo sapiens, UniProt P48546); assay: HitHunter cAMP assay, GIP receptor; conditions: for Emax: read-out: Emax GIP-1R
T2 sequence (P48546 22-466): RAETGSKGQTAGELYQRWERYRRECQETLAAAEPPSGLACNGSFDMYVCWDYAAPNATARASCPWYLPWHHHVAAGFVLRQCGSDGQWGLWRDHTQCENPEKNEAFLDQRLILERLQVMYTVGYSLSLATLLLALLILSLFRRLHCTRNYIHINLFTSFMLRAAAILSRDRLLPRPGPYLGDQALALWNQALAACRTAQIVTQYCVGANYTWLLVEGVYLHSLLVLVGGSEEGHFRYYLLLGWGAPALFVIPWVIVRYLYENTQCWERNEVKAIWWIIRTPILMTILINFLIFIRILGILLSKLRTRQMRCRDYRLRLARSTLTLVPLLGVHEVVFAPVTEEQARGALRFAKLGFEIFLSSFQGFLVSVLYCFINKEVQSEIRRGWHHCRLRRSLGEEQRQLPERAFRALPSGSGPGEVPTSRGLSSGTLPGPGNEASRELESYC

GLP-1 receptor [3] = target: T1, GLP-1 receptor; assay: HitHunter cAMP assay, GLP-1 receptor; conditions: for Emax: read-out: Emax GLP-1R
Description: CAMP accumulation was measured in Chinese hamster ovary (CHO) cells stably expressing the human GLP-1 receptor or GIP receptor using the HitHunter CAMP Assay for Small Molecules Kit (Eurofins). Briefly, cells were grown in Ham's F12 Nutrient Mix with 10% FBS and lifted with Cell dissociation buffer, Enzyme free, PBS based (ThermoFisher). Cells were pelleted and resuspended in Hank's buffered saline solution with 10 mM Hepes and 625 μM 3-isobutyl-1-methylxanthine. The antibody reagent was then added to cells at a 1:2 ratio and 5 μL of mixture was seeded in 384-well small volume white assay plates, at 10,000 cells/well. Cells were then treated with 50 nl compound in DMSO using an ECHO 550 acoustic dispenser (Labcyte) in a 20-point dose response format in triplicate for 30 min. Cells were the lysed and detection reagents added according to the manufacturer's protocol. After overnight incubation, luminescence was measured using a Perkin Elmer Envision plate reader. Raw data was normalized to the maximum signal from GLP-1 or GIP (high) and DMSO (low). Dose response curves were analyzed using GraphPad Prism 9.0.

GIP receptor [4] = target: T2, GIP receptor; assay: PathHunter β-arrestin assay, GIP receptor; design: host or cells: PathHunter CHO-K1 GIPR β-Arrestin Cell Line
[5] = β-arrestin-2 recruitment, PathHunter CHO-K1 GLP1R β-Arrestin Cell Line, 90 min at 37° C., normalized to GLP-1, read-out: GLP-1R β Arrestin EC50
[6] = CHO cells stably expressing GIP receptor, cAMP accumulation, 30 min, read-out: EC50 GIP-1R
[7] = CHO cells, cAMP, normalized to maximum signal from GIP (high) and DMSO (low)
[8] = CHO cells stably expressing human GLP-1 receptor, cAMP accumulation, 30 min, read-out: EC50 GLP-1R
[9] = CHO cells, cAMP, normalized to maximum signal from GLP-1 (high) and DMSO (low)
[10] = β-arrestin-2 recruitment, PathHunter CHO-K1 GIPR β-Arrestin Cell Line, 90 min at 37° C., normalized to GIP, read-out: GIPR β Arrestin EC50

T1 sequence (P43220 24-463): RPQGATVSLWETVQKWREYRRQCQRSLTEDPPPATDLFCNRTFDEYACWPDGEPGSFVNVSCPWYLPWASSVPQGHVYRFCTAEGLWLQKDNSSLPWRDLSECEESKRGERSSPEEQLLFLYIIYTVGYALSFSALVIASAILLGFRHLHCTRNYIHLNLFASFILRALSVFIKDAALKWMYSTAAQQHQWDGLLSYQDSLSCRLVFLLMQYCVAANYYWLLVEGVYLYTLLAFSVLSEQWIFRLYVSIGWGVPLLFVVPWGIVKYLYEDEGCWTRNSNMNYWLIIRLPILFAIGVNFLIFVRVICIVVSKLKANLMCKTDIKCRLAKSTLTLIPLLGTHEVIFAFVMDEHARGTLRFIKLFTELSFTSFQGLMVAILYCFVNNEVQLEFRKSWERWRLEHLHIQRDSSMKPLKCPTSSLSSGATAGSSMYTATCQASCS

SMILES | EC50 (GLP-1 receptor [1]; [5]) [nM] | EC50 (GIP receptor [2]; [6]) [nM] | Emax (GIP receptor [2]; [7]) [%] | EC50 (GLP-1 receptor [3]; [8]) [nM] | Emax (GLP-1 receptor [3]; [9]) [%] | EC50 (GIP receptor [4]; [10]) [nM] | EC50 (GLP-1 receptor [1]) [nM] | EC50 (GIP receptor [2]) [nM] | EC50 (GLP-1 receptor [3]) [nM] | EC50 (GIP receptor [4]) [nM] | Emax (GIP receptor [2]; CHO) [%] | Emax (GLP-1 receptor [3]; CHO) [%]
CC[C@H](C)[C@H](NC(=O)[C@H](CC(C)C)NC(=O)[C@H](Cc1c[nH]c2ccccc12)NC(=O)[C@H](CCC(N)=O)NC(=O)[C@@H](NC(=O)[C@H](Cc1ccccc1)NC(=O)[C@H](C)NC(=O)[C@H](CCCCNC(=O)COCCOCCNC(=O)COCCOCCNC(=O)CC[C@H](NC(=O)CCCCCCCCCCCCCCCCCCC(=O)O)C(=O)O)NC(=O)[C@H](CCC(N)=O)NC(=O)[C@H](C)NC(=O)[C@@H](NC(=O)[C@H](CCCCN)NC(=O)[C@H](CC(=O)O)NC(=O)[C@H](CC(C)C)NC(=O)C(C)(C)NC(=O)[C@@H](NC(=O)[C@H](CO)NC(=O)[C@H](Cc1ccc(O)cc1)NC(=O)[C@H](CC(=O)O)NC(=O)[C@H](CO)NC(=O)[C@@H](NC(=O)[C@H](Cc1ccccc1)NC(=O)[C@@H](NC(=O)CNC(=O)[C@H](CCC(=O)O)NC(=O)CCNCc1cc(O)cc(F)c1)[C@@H](C)O)[C@@H](C)O)[C@@H](C)CC)[C@@H](C)CC)C(C)C)C(=O)N[C@@H](C)C(=O)NCC(=O)NCC(=O)N1CCC[C@H]1C(=O)N[C@@H](CO)C(=O)N[C@@H](CO)C(=O)NCC(=O)N[C@@H](C)C(=O)N1CCC[C@H]1C(=O)N1CCC[C@H]1C(=O)N1CCC[C@H]1C(=O)N[C@@H](CO)C(N)=O [Compound 277] (X8-EGTFTSDYSI[Aib]LDKIAQK([AEEA-AEEA-γGlu-C20 diacid])AFVQWLIAGGPSSGAPPPS-NH2) | > 1000 | 100 to 1000 | 6 | 1 to 10 | 89 | > 1000 | – | – | – | – | – | –
CC[C@H](C)[C@H](NC(=O)[C@H](CC(C)C)NC(=O)[C@H](Cc1c[nH]c2ccccc12)NC(=O)[C@H](CCC(N)=O)NC(=O)[C@@H](NC(=O)[C@H](Cc1ccccc1)NC(=O)[C@H](C)NC(=O)[C@H](CCCCNC(=O)COCCOCCNC(=O)COCCOCCNC(=O)CC[C@H](NC(=O)CCCCCCCCCCCCCCCCCCC(=O)O)C(=O)O)NC(=O)[C@H](CCC(N)=O)NC(=O)[C@H](C)NC(=O)[C@@H](NC(=O)[C@H](CCCCN)NC(=O)[C@H](CC(=O)O)NC(=O)[C@H](CC(C)C)NC(=O)C(C)(C)NC(=O)[C@@H](NC(=O)[C@H](CO)NC(=O)[C@H](Cc1ccc(O)cc1)NC(=O)[C@H](CC(=O)O)NC(=O)[C@H](CO)NC(=O)[C@@H](NC(=O)[C@H](Cc1ccccc1)NC(=O)[C@@H](NC(=O)CNC(=O)[C@H](CCC(=O)O)NC(=O)CCNC(=O)C(C)(C)c1cccc(C#N)c1)[C@@H](C)O)[C@@H](C)O)[C@@H](C)CC)[C@@H](C)CC)C(C)C)C(=O)N[C@@H](C)C(=O)NCC(=O)NCC(=O)N1CCC[C@H]1C(=O)N[C@@H](CO)C(=O)N[C@@H](CO)C(=O)NCC(=O)N[C@@H](C)C(=O)N1CCC[C@H]1C(=O)N1CCC[C@H]1C(=O)N1CCC[C@H]1C(=O)N[C@@H](CO)C(N)=O [Compound 150] ({X7-βAla}-EGTFTSDYSI[Aib]LDKIAQK([AEEA-AEEA-γGlu-C20 diacid])AFVQWLIAGGPSSGAPPPS-NH2) | – | – | 91 | – | 103 | – | > 1000 | 0.1 to 1 | 0.1 to 1 | < 1000 | – | –
CC[C@H](C)[C@H](NC(=O)[C@H](CC(C)C)NC(=O)[C@H](Cc1c[nH]c2ccccc12)NC(=O)[C@H](CCC(N)=O)NC(=O)[C@@H](NC(=O)[C@H](Cc1ccccc1)NC(=O)[C@H](C)NC(=O)[C@H](CCCCNC(=O)COCCOCCNC(=O)COCCOCCNC(=O)CC[C@H](NC(=O)CCCCCCCCCCCCCCCCCCC(=O)O)C(=O)O)NC(=O)[C@H](CCC(N)=O)NC(=O)[C@H](C)NC(=O)[C@@H](NC(=O)[C@H](CCCCN)NC(=O)[C@H](CC(=O)O)NC(=O)[C@H](CC(C)C)NC(=O)C(C)(C)NC(=O)[C@@H](NC(=O)[C@H](CO)NC(=O)[C@H](Cc1ccc(O)cc1)NC(=O)[C@H](CC(=O)O)NC(=O)[C@H](CO)NC(=O)[C@@H](NC(=O)[C@H](Cc1ccccc1)NC(=O)[C@@H](NC(=O)CNC(=O)[C@H](CCC(=O)O)NC(=O)CCCNC(=O)CNC(=O)Cc1cccc(Cl)c1)[C@@H](C)O)[C@@H](C)O)[C@@H](C)CC)[C@@H](C)CC)C(C)C)C(=O)N[C@@H](C)C(=O)NCC(=O)NCC(=O)N1CCC[C@H]1C(=O)N[C@@H](CO)C(=O)N[C@@H](CO)C(=O)NCC(=O)N[C@@H](C)C(=O)N1CCC[C@H]1C(=O)N1CCC[C@H]1C(=O)N1CCC[C@H]1C(=O)N[C@@H](CO)C(N)=O [Compound 221] ({Phenylacetyl(3-Cl)}-G[GABA]EGTFTSDYSI[Aib]LDKIAQK([AEEA-AEEA-γGlu-C20 diacid])AFVQWLIAGGPSSGAPPPS-NH2) | – | – | – | – | – | – | > 1000 | 10 to 100 | 10 to 100 | > 1000 | 95 | 95
CC[C@H](C)[C@H](NC(=O)[C@H](CO)NC(=O)[C@H](Cc1ccc(O)cc1)NC(=O)[C@H](CC(=O)O)NC(=O)[C@H](CO)NC(=O)[C@@H](NC(=O)[C@H](Cc1ccccc1)NC(=O)[C@@H](NC(=O)CNC(=O)[C@H](CCC(=O)O)NC(=O)CCNC(=O)[C@]1(c2ccccc2)CNC(=O)C1)[C@@H](C)O)[C@@H](C)O)C(=O)N[C@@H](Cc1ccc(O)cc1)C(=O)N[C@@H](CC(C)C)C(=O)N[C@@H](CC(=O)O)C(=O)N[C@@H](CCCCN)C(=O)N[C@@H](CCC(N)=O)C(=O)N[C@@H](C)C(=O)N[C@@H](C)C(=O)NC(C)(C)C(=O)N[C@@H](CCC(=O)O)C(=O)N[C@@H](Cc1ccccc1)C(=O)N[C@H](C(=O)N[C@@H](CCCCNC(=O)COCCOCCNC(=O)COCCOCCNC(=O)CC[C@H](NC(=O)CCCCCCCCCCCCCCCCCCC(=O)O)C(=O)O)C(=O)N[C@@H](Cc1c[nH]c2ccccc12)C(=O)N[C@@H](CC(C)C)C(=O)N[C@@H](CC(C)C)C(=O)N[C@@H](C)C(=O)NCC(=O)NCC(=O)N1CCC[C@H]1C(=O)N[C@@H](CO)C(=O)N[C@@H](CO)C(=O)NCC(=O)N[C@@H](C)C(=O)N1CCC[C@H]1C(=O)N1CCC[C@H]1C(=O)N1CCC[C@H]1C(=O)N[C@@H](CO)C(N)=O)C(C)C (single isomer, unassigned) [Compound 102] | > 1000 | 1 to 10 | 101 | 0.1 to 1 | 91 | > 1000 | – | – | – | – | – | –
CC[C@H](C)[C@H](NC(=O)[C@H](CC(C)C)NC(=O)[C@H](Cc1c[nH]c2ccccc12)NC(=O)[C@H](CCC(N)=O)NC(=O)[C@@H](NC(=O)[C@H](Cc1ccccc1)NC(=O)[C@H](C)NC(=O)[C@H](CCCCNC(=O)COCCOCCNC(=O)COCCOCCNC(=O)CC[C@H](NC(=O)CCCCCCCCCCCCCCCCCCC(=O)O)C(=O)O)NC(=O)[C@H](CCC(N)=O)NC(=O)[C@H](C)NC(=O)[C@@H](NC(=O)[C@H](CCCCN)NC(=O)[C@H](CC(=O)O)NC(=O)[C@H](CC(C)C)NC(=O)C(C)(C)NC(=O)[C@@H](NC(=O)[C@H](CO)NC(=O)[C@H](Cc1ccc(O)cc1)NC(=O)[C@H](CC(=O)O)NC(=O)[C@H](CO)NC(=O)[C@@H](NC(=O)[C@H](Cc1ccccc1)NC(=O)[C@@H](NC(=O)CNC(=O)[C@H](CCC(=O)O)NC(=O)CCNC(=O)C(C)(C)c1ccc(OC)cc1)[C@@H](C)O)[C@@H](C)O)[C@@H](C)CC)[C@@H](C)CC)C(C)C)C(=O)N[C@@H](C)C(=O)NCC(=O)NCC(=O)N1CCC[C@H]1C(=O)N[C@@H](CO)C(=O)N[C@@H](CO)C(=O)NCC(=O)N[C@@H](C)C(=O)N1CCC[C@H]1C(=O)N1CCC[C@H]1C(=O)N1CCC[C@H]1C(=O)N[C@@H](CO)C(N)=O [Compound 203] ({X44-βAla}-EGTFTSDYSI[Aib]LDKIAQK([AEEA-AEEA-γGlu-C20 diacid])AFVQWLIAGGPSSGAPPPS-NH2) | > 1000 | 1 to 10 | 103 | 0.1 to 1 | 103 | < 1000 | – | – | – | – | – | –
